Assay results from patent US20210215714A1, “COMPLEMENT ALTERNATIVE PATHWAY-ASSOCIATED NEPHROPATHY BIOMARKERS” (Achillion Pharmaceuticals, Inc., priority 2018, published 2021).

Tested on: sC5b-9
Experiment: Phase 2a study: urinary sC5b-9 (MicroVue sC5b-9 Enzyme Immunoassay);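 further: urine from C3 glomerulopathy or IC-MPGN patients, sandwich ELISA capturing sC5b-9 via C9-ring monoclonal with HRP detection read at 450 nm, values raw or normalized to creatinine or albumin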
[1] = Patient A, 100 mg TID, Day 1/0 Hour
[2] = Patient A, 100 mg TID, Day 7/0 Hour
[3] = Patient A, 100 mg TID, Day 15 Taper
[4] = Patient A, 100 mg TID, Day 16 Taper
[5] = Patient A, 100 mg TID, Day 17 Taper
[6] = Patient A, 100 mg TID, Day 21 Taper
[7] = Patient A, 100 mg TID, Follow-Up Day 24
[8] = Patient A, 100 mg TID, Follow-Up Day 28
[9] = Patient A, 100 mg TID, Follow-Up Day 49
[10] = Patient B, 100 mg TID, Day 1/0 Hour
[11] = Patient B, 100 mg TID, Day 7/0 Hour
[12] = Patient B, 100 mg TID, Day 15 Taper
[13] = Patient B, 100 mg TID, Day 16 Taper
[14] = Patient B, 100 mg TID, Day 17 Taper
[15] = Patient B, 100 mg TID, Day 21 Taper
[16] = Patient B, 100 mg TID, Follow-Up Day 24
[17] = Patient B, 100 mg TID, Follow-Up Day 28
[18] = Patient B, 100 mg TID, Follow-Up Day 49
[19] = Patient C, 200 mg TID, Day 1/0 Hour
[20] = Patient C, 200 mg TID, Day 7/0 Hour
[21] = Patient C, 200 mg TID, Day 15 Taper
[22] = Patient C, 200 mg TID, Day 16 Taper
[23] = Patient C, 200 mg TID, Day 17 Taper
[24] = Patient C, 200 mg TID, Day 21 Taper
[25] = Patient C, 200 mg TID, Follow-Up Day 24
[26] = Patient C, 200 mg TID, Follow-Up Day 28
[27] = Patient C, 200 mg TID, Follow-Up Day 49
[28] = Patient C, 200 mg TID, Screen 1
[29] = Patient D, 200 mg TID, Day 1/0 Hour
[30] = Patient D, 200 mg TID, Day 7/0 Hour
[31] = Patient D, 200 mg TID, Day 15 Taper
[32] = Patient D, 200 mg TID, Day 17 Taper

Description: 10 patients with either C3 Glomerulopathy (C3G) or Immune-Complex Membranoproliferative Glomerulonephritis (IC-MPGN) are to be enrolled across two dose groups. […] Inclusion criteria include a clinical diagnosis of C3G (C3 glomerulonephritis [C3GN] or dense deposit disease [DDD], the 2 types of C3G) or idiopathic immune-complex membranoproliferative glomerulonephritis (IC-MPGN) by renal biopsy for at least 3 months prior to dosing, with the pathologic diagnosis verified by review of the renal biopsy by the study central pathologist. Patients must have low C3 levels (<50% of the lower limit of normal) and normal or near-normal C4 levels (>90% of the lower limit of normal).
To measure urinary sC5b-9 production, patient urine samples were tested utilizing the MicroVue sC5b-9 Enzyme Immunoassay for the quantitation of sC5b-9 in urine. […] The samples were tested utilizing the MicroVue sC5b-9 Enzyme Immunoassay for the quantitation of sC5b-9 urine, which is a three-step procedure utilizing a micro-assay plate coated with a mouse monoclonal antibody that binds specifically to the C9 ring of sC5b-9, HRP-conjugated antibodies to antigens of sC5b-9, and a chromogenic substrate. In step 1, standards, controls, and test specimens are added to micro-assay wells pre-coated with an anti-sC5b-9 specific monoclonal antibody. sC5b-9 present in the Standards, Controls, or specimens will bind to the immobilized sC5b-9 monoclonal antibody. After incubation, a wash cycle removes unbound material. […] In step 2, horseradish peroxidase (HRP)-conjugated antibodies to antigens of sC5b-9 are added to each test well. The enzyme conjugated antibodies bind to sC5b-9 that was captured by the monoclonal anti-sC5b-9 bound on the surface of the micro-assay wells. After incubation, a wash cycle removes unbound, excess conjugate. In step 3, a chromogenic enzyme substrate is added to each micro-assay well. The bound HRP-conjugate reacts with the substrate, forming a blue color. After incubation the enzyme reaction is stopped chemically, the color changes to yellow, and the color intensity is measured spectrophotometrically at 450 nm. The color intensity of the reaction mixture is proportional to the concentration of sC5b-9 present in the test specimens, standards, and controls. […] Measurements of urinary biomarkers are typically normalized to urine creatinine or albumin levels to account for variation in biomarker levels due to changes in urinary filtration rate.

In the case of `CC(=O)c1nn(CC(=O)N2C[C@H](F)C[C@H]2C(=O)Nc2cccc(Br)n2)c2ccc(-c3cnc(C)nc3)cc12` [Compound 1, (2S,4R)-1-(2-(3-acetyl-5-(2-methylpyrimidin-5-yl)-1H-indazol-1-yl)acetyl)-N-(6-bromopyridin-2-yl)-4-fluoropyrrolidine-2-carboxamide], the sC5b-9/ALB [1] is reported as 38 ng/mg, the sC5b-9/Cr [1] is reported as 9.9 µg/mmol and the “Urine sC5b-9” value (Patient A, 100 mg TID, Day 1 predose) is reported as 81.2 ng/mL. For the same compound, the “Urine sC5b-9” value (Patient A, 100 mg TID, Day 4) was 84.2 ng/mL, the sC5b-9/ALB (Patient A, 100 mg TID, Day 4) was 48 ng/mg and the sC5b-9/Cr (Patient A, 100 mg TID, Day 4) was 10.5 µg/mmol. For the same compound, the “Urine sC5b-9” value (Patient A, 100 mg TID, Day 7) was 70.4 ng/mL, the sC5b-9/ALB [2] was 46 ng/mg and the sC5b-9/Cr [2] was 10.7 µg/mmol. For the same compound, the “Urine sC5b-9” value (Patient A, 100 mg TID, Day 10) was 52.0 ng/mL, the sC5b-9/ALB (Patient A, 100 mg TID, Day 10) was 37 ng/mg and the sC5b-9/Cr (Patient A, 100 mg TID, Day 10) was 8.4 µg/mmol. For the same compound, the “Urine sC5b-9” value [3] was 56.9 ng/mL, the sC5b-9/ALB [3] was 54 ng/mg and the sC5b-9/Cr [3] was 7.8 µg/mmol. The “Urine sC5b-9” value [4] was 66.2 ng/mL, the sC5b-9/ALB [4] was 62 ng/mg and the sC5b-9/Cr [4] was 8.8 µg/mmol. The “Urine sC5b-9” value [5] was 84.4 ng/mL, the sC5b-9/ALB [5] was 74 ng/mg and the sC5b-9/Cr [5] was 8.5 µg/mmol. For the same compound, the “Urine sC5b-9” value [6] was 85.8 ng/mL, the sC5b-9/ALB [6] was 70 ng/mg and the sC5b-9/Cr [6] was 9.9 µg/mmol. For the same compound, the “Urine sC5b-9” value [7] was 95.0 ng/mL, the sC5b-9/ALB [7] was 69 ng/mg and the sC5b-9/Cr [7] was 9.5 µg/mmol. For the same compound, the “Urine sC5b-9” value [8] was 79.7 ng/mL, the sC5b-9/ALB [8] was 61 ng/mg and the sC5b-9/Cr [8] was 8.0 µg/mmol. The “Urine sC5b-9” value [9] was 57.5 ng/mL, the sC5b-9/ALB [9] was 92 ng/mg and the sC5b-9/Cr [9] was 13.4 µg/mmol. For the same compound, the “Urine sC5b-9” value (Patient A, 100 mg TID, Screen) was 76.3 ng/mL, the sC5b-9/ALB (Patient A, 100 mg TID, Screen) was 40 ng/mg and the sC5b-9/Cr (Patient A, 100 mg TID, Screen) was 9.2 µg/mmol. The sC5b-9/ALB [10] was 1500 ng/mg, the sC5b-9/Cr [10] was 866 µg/mmol and the “Urine sC5b-9” value (Patient B, 100 mg TID, Day 1 predose) was 5280 ng/mL. The “Urine sC5b-9” value (Patient B, 100 mg TID, Day 4) was 2139 ng/mL, the sC5b-9/ALB (Patient B, 100 mg TID, Day 4) was 637 ng/mg and the sC5b-9/Cr (Patient B, 100 mg TID, Day 4) was 168 µg/mmol. The “Urine sC5b-9” value (Patient B, 100 mg TID, Day 7) was 2266 ng/mL, the sC5b-9/ALB [11] was 624 ng/mg and the sC5b-9/Cr [11] was 155 µg/mmol. The “Urine sC5b-9” value (Patient B, 100 mg TID, Day 10) was 1073 ng/mL, the sC5b-9/ALB (Patient B, 100 mg TID, Day 10) was 563 ng/mg and the sC5b-9/Cr (Patient B, 100 mg TID, Day 10) was 143 µg/mmol. The “Urine sC5b-9” value (Patient B, 100 mg TID, Day 14) was 4010 ng/mL, the sC5b-9/ALB (Patient B, 100 mg TID, Day 14) was 911 ng/mg and the sC5b-9/Cr (Patient B, 100 mg TID, Day 14) was 240 µg/mmol. The “Urine sC5b-9” value [12] was 3334 ng/mL, the sC5b-9/ALB [12] was 929 ng/mg and the sC5b-9/Cr [12] was 303 µg/mmol. The “Urine sC5b-9” value [13] was 4784 ng/mL, the sC5b-9/ALB [13] was 1154 ng/mg and the sC5b-9/Cr [13] was 380 µg/mmol. The “Urine sC5b-9” value [14] was 2693 ng/mL, the sC5b-9/ALB [14] was 907 ng/mg and the sC5b-9/Cr [14] was 238 µg/mmol. The “Urine sC5b-9” value [15] was 2469 ng/mL, the sC5b-9/ALB [15] was 821 ng/mg and the sC5b-9/Cr [15] was 305 µg/mmol. For the same compound, the “Urine sC5b-9” value [16] was 3958 ng/mL, the sC5b-9/ALB [16] was 1380 ng/mg and the sC5b-9/Cr [16] was 649 µg/mmol. The “Urine sC5b-9” value [17] was 2376 ng/mL, the sC5b-9/ALB [17] was 882 ng/mg and the sC5b-9/Cr [17] was 335 µg/mmol. The “Urine sC5b-9” value [18] was 14132 ng/mL, the sC5b-9/ALB [18] was 6312 ng/mg and the sC5b-9/Cr [18] was 883 µg/mmol. The “Urine sC5b-9” value (Patient B, 100 mg TID, Screen) was 2598 ng/mL, the sC5b-9/ALB (Patient B, 100 mg TID, Screen) was 724 ng/mg and the sC5b-9/Cr (Patient B, 100 mg TID, Screen) was 351 µg/mmol. The sC5b-9/ALB [19] was 203 ng/mg, the sC5b-9/Cr [19] was 11.9 µg/mmol and the “Urine sC5b-9” value (Patient C, 200 mg TID, Day 1 predose) was 21.5 ng/mL. For the same compound, the “Urine sC5b-9” value (Patient C, 200 mg TID, Day 4) was under 8.8 ng/mL, the sC5b-9/ALB (Patient C, 200 mg TID, Day 4) was 173 ng/mg and the sC5b-9/Cr (Patient C, 200 mg TID, Day 4) was 4.63 µg/mmol. The “Urine sC5b-9” value (Patient C, 200 mg TID, Day 7) was under 8.8 ng/mL, the sC5b-9/ALB [20] was 110 ng/mg and the sC5b-9/Cr [20] was 2.38 µg/mmol. For the same compound, the “Urine sC5b-9” value (Patient C, 200 mg TID, Day 10) was under 8.8 ng/mL, the sC5b-9/ALB (Patient C, 200 mg TID, Day 10) was 160 ng/mg and the sC5b-9/Cr (Patient C, 200 mg TID, Day 10) was 5.50 µg/mmol. The “Urine sC5b-9” value (Patient C, 200 mg TID, Day 14) was under 8.8 ng/mL, the sC5b-9/ALB (Patient C, 200 mg TID, Day 14) was 220 ng/mg and the sC5b-9/Cr (Patient C, 200 mg TID, Day 14) was 6.77 µg/mmol. The “Urine sC5b-9” value [21] was under 8.8 ng/mL, the sC5b-9/ALB [21] was 131 ng/mg and the sC5b-9/Cr [21] was 5.87 µg/mmol. The “Urine sC5b-9” value [22] was under 8.8 ng/mL, the sC5b-9/ALB [22] was 176 ng/mg and the sC5b-9/Cr [22] was 4.63 µg/mmol. For the same compound, the “Urine sC5b-9” value [23] was under 8.8 ng/mL, the sC5b-9/ALB [23] was 126 ng/mg and the sC5b-9/Cr [23] was 4.00 µg/mmol. The “Urine sC5b-9” value [24] was 10.3 ng/mL, the sC5b-9/ALB [24] was 158 ng/mg and the sC5b-9/Cr [24] was 3.67 µg/mmol. The “Urine sC5b-9” value [25] was 11.0 ng/mL, the sC5b-9/ALB [25] was 186 ng/mg and the sC5b-9/Cr [25] was 6.11 µg/mmol. For the same compound, the “Urine sC5b-9” value [26] was 21.2 ng/mL, the sC5b-9/ALB [26] was 154 ng/mg and the sC5b-9/Cr [26] was 7.32 µg/mmol. The “Urine sC5b-9” value [27] was 14.0 ng/mL, the sC5b-9/ALB [27] was 149 ng/mg and the sC5b-9/Cr [27] was 3.04 µg/mmol. The “Urine sC5b-9” value (Patient C, 200 mg TID, Screen) was 32.1 ng/mL, the sC5b-9/ALB (Patient C, 200 mg TID, Screen) was 387 ng/mg and the sC5b-9/Cr (Patient C, 200 mg TID, Screen) was 16.9 µg/mmol. The “Urine sC5b-9” value [28] was 57.4 ng/mL, the sC5b-9/ALB [28] was 422 ng/mg and the sC5b-9/Cr [28] was 52.2 µg/mmol. For the same compound, the sC5b-9/ALB [29] was 22 ng/mg, the sC5b-9/Cr [29] was 4.8 µg/mmol and the “Urine sC5b-9” value (Patient D, 200 mg TID, Day 1 predose) was 28.1 ng/mL. The “Urine sC5b-9” value (Patient D, 200 mg TID, Day 4) was 18.5 ng/mL, the sC5b-9/ALB (Patient D, 200 mg TID, Day 4) was 15 ng/mg and the sC5b-9/Cr (Patient D, 200 mg TID, Day 4) was 4.1 µg/mmol. The “Urine sC5b-9” value (Patient D, 200 mg TID, Day 7) was 15.8 ng/mL, the sC5b-9/ALB [30] was 43 ng/mg and the sC5b-9/Cr [30] was 14.3 µg/mmol. The “Urine sC5b-9” value (Patient D, 200 mg TID, Day 10) was 8.9 ng/mL, the sC5b-9/ALB (Patient D, 200 mg TID, Day 10) was 14 ng/mg and the sC5b-9/Cr (Patient D, 200 mg TID, Day 10) was 8.9 µg/mmol. The “Urine sC5b-9” value (Patient D, 200 mg TID, Day 14) was 12.0 ng/mL, the sC5b-9/ALB (Patient D, 200 mg TID, Day 14) was 13 ng/mg and the sC5b-9/Cr (Patient D, 200 mg TID, Day 14) was 3.9 µg/mmol. The “Urine sC5b-9” value [31] was 20.3 ng/mL, the sC5b-9/ALB [31] was 10 ng/mg and the sC5b-9/Cr [31] was 4.8 µg/mmol. The “Urine sC5b-9” value [32] was 15.3 ng/mL, the sC5b-9/ALB [32] was 9 ng/mg and the sC5b-9/Cr [32] was 5.3 µg/mmol.
